Biological target: T1, HpDnaB (Helicobacter pylori, UniProt O25916)
T1 construct: gene dnaB; recombinant in E. coli BL21 Star (DE3), pACYC-duet1 (NdeI/XhoI); monomer 59 kDa; closed hexamer proposed with DNA, dodecamer in crystal 4ZC0
T1 sequence (O25916 1-488): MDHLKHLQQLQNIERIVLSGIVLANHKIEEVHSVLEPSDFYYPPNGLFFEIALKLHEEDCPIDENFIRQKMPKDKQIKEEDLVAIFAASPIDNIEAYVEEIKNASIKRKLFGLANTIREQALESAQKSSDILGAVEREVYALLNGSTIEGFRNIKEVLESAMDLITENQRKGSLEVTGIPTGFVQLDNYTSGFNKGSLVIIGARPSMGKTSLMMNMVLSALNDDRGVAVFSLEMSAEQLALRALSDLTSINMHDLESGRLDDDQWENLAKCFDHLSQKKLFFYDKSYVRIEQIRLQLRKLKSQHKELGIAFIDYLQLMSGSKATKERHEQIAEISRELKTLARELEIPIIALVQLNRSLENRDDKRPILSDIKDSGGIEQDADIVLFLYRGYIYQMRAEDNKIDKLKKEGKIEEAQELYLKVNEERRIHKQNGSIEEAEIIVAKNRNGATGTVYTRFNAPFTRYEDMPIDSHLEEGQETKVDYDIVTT
Experiment: proton-detected […],1H solid-state NMR (hPH, […] kHz MAS); Mn2+ EDNMR/ENDOR
Type: binding
Details: as ADP:AlF4- complex; Mg2+ and (dT)20 for hPH NMR, Mn2+ without DNA for EPR; pH 7.5; Walker A nucleotide site (S206, G208, K209, T210, S211)

Nc1ncnc2c1ncn2[C@@H]1O[C@H](COP(=O)(O)OP(=O)(O)O)[C@@H](O)[C@H]1O [ADP]
proton-detected 31P,1H solid-state NMR (hPH, 105 kHz MAS); Mn2+ EDNMR/ENDOR: spatial correlations between Pβ of ADP and S206, G208, K209 and T210

Reference: publication PMC8421360, “Spectroscopic glimpses of the transition state of ATP hydrolysis trapped in a bacterial DnaB helicase” (Nature Communications, 2021)
